57 compounds from ChEMBL document CHEMBL1138458, “Fructose-1,6-bisphosphatase inhibitors. 1. Purine phosphonic acids as novel AMP mimics” (J Med Chem, 2009) can be followed below.

For data set [1], the target named is T1, Fructose-1,6-bisphosphatase 1 (Homo sapiens, UniProt P09467).
T1 sequence (P09467 whole entry): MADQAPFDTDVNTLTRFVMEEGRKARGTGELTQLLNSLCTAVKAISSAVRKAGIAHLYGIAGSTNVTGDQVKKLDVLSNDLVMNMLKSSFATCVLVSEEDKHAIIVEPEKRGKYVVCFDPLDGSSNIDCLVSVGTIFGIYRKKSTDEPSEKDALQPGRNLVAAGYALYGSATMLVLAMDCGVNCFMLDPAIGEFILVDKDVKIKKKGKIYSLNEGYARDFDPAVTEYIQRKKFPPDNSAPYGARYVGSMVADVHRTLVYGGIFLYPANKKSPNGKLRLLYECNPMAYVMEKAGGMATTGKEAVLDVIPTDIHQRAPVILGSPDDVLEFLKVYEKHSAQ
In words: Inhibition of human liver FBPase expressed in Escherichia coli by spectrophotometry.

The next data set has as its system Hepatocyte. In words: Inhibition of glucose production in rat primary hepatocytes treated for 15 to 30 mins prior to gluconeogenic substrate dihydroxyacetone addition. In kind it is functional, cell-based.
Data set [2] has as its target T2, Fructose-1,6-bisphosphatase 1 (Rattus norvegicus, UniProt P19112).
T2 sequence (P19112 whole entry): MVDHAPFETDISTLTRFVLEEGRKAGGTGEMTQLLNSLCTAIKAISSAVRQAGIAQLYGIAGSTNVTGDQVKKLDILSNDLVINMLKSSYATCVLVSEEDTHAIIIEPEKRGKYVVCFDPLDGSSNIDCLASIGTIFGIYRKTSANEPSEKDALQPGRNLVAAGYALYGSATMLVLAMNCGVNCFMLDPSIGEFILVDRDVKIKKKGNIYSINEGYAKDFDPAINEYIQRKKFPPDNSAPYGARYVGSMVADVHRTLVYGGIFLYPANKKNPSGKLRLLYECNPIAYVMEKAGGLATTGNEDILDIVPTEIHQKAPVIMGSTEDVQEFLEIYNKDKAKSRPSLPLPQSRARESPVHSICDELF
Description: Inhibition of rat liver FBPase.

The next data set has as its system Rattus norvegicus. Description: Oral bioavailability in fasted Sprague-Dawley rat assessed as urinary excretion of phosphonic acid up to 300 mg/kg. The settings on record: in vivo. The data set is classed as ADME, organism-based, Urine.
The target in data set [3] is T3, Fructose-1,6-bisphosphatase 1 (Homo sapiens) (UniProt P09467).
T3 sequence (whole entry): T1 sequence (P09467 whole entry)
Description: Displacement of [3H]AMP from human liver FBPase

The target of another data set is Adenosine kinase (Homo sapiens, UniProt P55263). Description: Inhibition of human recombinant adenosine kinase expressed in Escherichia coli.
Adenosine kinase, sequence (P55263 whole entry): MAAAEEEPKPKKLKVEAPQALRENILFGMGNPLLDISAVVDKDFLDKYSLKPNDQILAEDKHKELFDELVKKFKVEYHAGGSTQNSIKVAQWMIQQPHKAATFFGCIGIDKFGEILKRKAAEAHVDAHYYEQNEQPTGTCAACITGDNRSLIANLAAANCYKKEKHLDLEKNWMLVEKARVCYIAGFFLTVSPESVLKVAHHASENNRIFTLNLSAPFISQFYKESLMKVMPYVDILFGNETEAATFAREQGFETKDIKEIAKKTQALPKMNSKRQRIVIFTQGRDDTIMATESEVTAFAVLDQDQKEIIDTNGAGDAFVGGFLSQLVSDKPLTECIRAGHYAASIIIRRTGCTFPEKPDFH
Data set [4] can be described thus: Inhibition of pig heart AMP deaminase. More on the design: species or system Sus scrofa.
A short description of data set [5]: Inhibition of New Zealand white rabbit liver phosphofructokinase. More on the design: species or system Oryctolagus cuniculus.

One may read the IC50 as the concentration needed to halve the response being measured. Regarding `CN(C)c1ncnc2c1nc(-c1ccc(P(=O)(O)O)o1)n2CCc1ccccc1`, inhibition in data set [1] was half-maximal at 250 µM (IC50).
On the same count and under the same terms, the figure for `Nc1ncnc2c1nc(CCC(=O)O)n2[C@@H]1O[C@H](CO)[C@@H](O)[C@H]1O` is over 100 µM.
Broadly, the EC50 is the concentration needed to bring the measured effect to its halfway point. Read a high EC50 as weaker potency. Take `CC(C)(CO)Cn1c(-c2ccc(P(=O)(O)O)o2)nc2c(N)ncnc21`: the EC50 in the data set with Hepatocyte came to 50 µM. This compound gave a half-maximal inhibitory concentration (IC50) in data set [2] of over 20 µM.
As to `Nc1ncnc2c1nc(-c1ccc(S(=O)(=O)O)o1)n2CCc1ccccc1`, the 50% inhibitory concentration (IC50) in data set [1] was 150 µM.
Take `COc1ccc(COP(=O)(OCc2ccc(OC)c(C#N)c2)c2ccc(-c3nc4c(N)ncnc4n3CCc3ccccc3)o2)cc1C#N`: the EC50 in the data set on Hepatocyte was over 100 µM.
In data set [1], `CCn1c(-c2ccc(P(=O)(O)O)o2)nc2c(N)ncnc21` gave an IC50 of 1.8 µM.
In the case of `CC(C)Cn1c(-c2ccc(P(=O)(O)O)o2)nc2c(N)ncnc21`, the IC50 stood at 1.5 µM in data set [1] and 7 µM in data set [2]. In the data set on Hepatocyte, the EC50 stood at 18 µM.
Compound `Nc1ncnc2c1nc(NCCOP(=O)(O)O)n2[C@@H]1O[C@H](CO)[C@@H](O)[C@H]1O` registered an IC50 in data set [1] of 140 µM.
As to `CC(C)(C)Cn1c(-c2ccc(P(=O)(OCOC(=O)C(C)(C)C)OCOC(=O)C(C)(C)C)o2)nc2c(N)ncnc21`, in the data set on Rattus norvegicus, the F is recorded as 5.3%.
Regarding `Nc1ncnc2c1nc(C(=O)NCP(=O)(O)O)n2CCc1ccccc1`, in data set [1], the IC50 came out at 100 µM.
`Nc1ncnc2c1nc(-c1ccc(P(=O)(OCCSSCCO)OCCSSCCO)o1)n2CCc1ccccc1` came in with an EC50 in the data set on Hepatocyte of over 500 µM.
`CNc1ncnc2c1nc(-c1ccc(P(=O)(O)O)o1)n2CCc1ccccc1` came in with an IC50 in data set [1] of 50 µM.
`CC(=O)OC1CCCC(OP(=O)(OC2CCCC(OC(C)=O)C2)c2ccc(-c3nc4c(N)ncnc4n3CCc3ccccc3)o2)C1` (stereo not drawn) displayed an EC50 in the data set on Hepatocyte of 400 µM.
In data set [1], `Nc1ncnc2c1nc(/C=C/CP(=O)(O)O)n2CCc1ccccc1` registered an IC50 of 100 µM.
With `COc1cc2c(c(OC)c1OC)C(=O)OC2OP(=O)(OC1OC(=O)c2c1cc(OC)c(OC)c2OC)c1ccc(-c2nc3c(N)ncnc3n2CCc2ccccc2)o1` (stereo not drawn), in the data set with Hepatocyte, the EC50 is 75 µM.
`Nc1ncnc2c1nc(-c1ccc(P(=O)(O)O)o1)n2CC(c1ccccc1)c1ccccc1` registered an IC50 in data set [1] of 70 µM.
The same measure, in the same setting: the figure for `CC(C)Cn1c(-c2ccc(P(=O)(O)O)o2)nc2c(N)nc(S(C)(=O)=O)nc21` is 28 µM.
On the same count and under the same terms, the figure for `CC(C)(C)CCn1c(-c2ccc(P(=O)(O)O)o2)nc2c(N)ncnc21` is 1.6 µM; for `CC(Cc1nc2c(N)ncnc2n1CCc1ccccc1)[PH](=O)O` (stereo not drawn) it is over 1000 µM.
Regarding `Nc1ncnc2c1nc(CCO[PH](=O)O)n2CCc1ccccc1`, the IC50 in data set [1] was over 1000 µM.
Regarding `Nc1ncnc2c1nc(-c1ccc(P(=O)(O)O)o1)n2C1CCCC1`, the 50% effective concentration (EC50) in the data set with Hepatocyte was 24 µM. The compound also yielded an IC50 in data set [2] of over 20 µM.
`CC(C)(C)Cn1c(-c2ccc(P(=O)(O)O)o2)nc2c(N)nc(N)nc21`: the IC50 in data set [1] was determined as 5.5 µM.
The same measure, in the same setting: as for `Nc1ncnc2c1nc(SCCP(=O)(O)O)n2CCc1ccccc1`, the figure is 145 µM; as for `Nc1ncnc2c1nc(NCCC(=O)O)n2[C@@H]1O[C@H](CO)[C@@H](O)[C@H]1O`, over 100 µM.
With `CC(C)C(=O)OCOP(=O)(OCOC(=O)C(C)C)c1ccc(-c2nc3c(N)ncnc3n2CCc2ccccc2)o1`, in the data set on Hepatocyte, the EC50 was found to be 25 µM.
Regarding `C[C@H]1O[C@@H](n2c(NCCP(=O)(O)O)nc3c(N)ncnc32)[C@H](O)[C@@H]1O`, the IC50 in data set [1] stood at 100 µM.
Still for that read-out and setting: as for `Nc1ncnc2c1nc(/C=C/C(=O)O)n2[C@@H]1O[C@H](CO)[C@@H](O)[C@H]1O`, the figure is over 100 µM.
Turning to `Nc1ncnc2c1nc(-c1ccc(P(=O)(O)O)o1)n2CCC1CCCCC1`, the response in the data set on Hepatocyte was half-maximal at 90 µM (EC50). For the same compound, it took 20 µM to reach half-maximal inhibition in data set [2] (IC50). The ED50 in data set [3] is 35 µM.
Turning to `Nc1ncnc2c1nc(NCC(=O)O)n2[C@@H]1O[C@H](CO)[C@@H](O)[C@H]1O`, the IC50 in data set [1] was over 100 µM.
On the same count and under the same terms, the figure for `Nc1ncnc2c1nc(CCC[PH](=O)O)n2CCc1ccccc1` is over 1000 µM; for `CC(C)(C)Cn1c(Cn2ccnc2P(=O)(O)O)nc2c(N)ncnc21` it is over 100 µM.
The same measure, in the same setting: the figure for `O=P(O)(O)c1ccc(-c2nc3c(Cl)ncnc3n2CCc2ccccc2)o1` is 50 µM; for `Nc1ncnc2c1nc(CCOP(=O)(O)O)n2CCc1ccccc1` it is 40 µM; for `Nc1ncnc2c1nc(-c1ccc(C(=O)O)o1)n2CCc1ccccc1` it is over 100 µM.
On to `CC(C)(CCl)Cn1c(-c2ccc(P(=O)(O)O)o2)nc2c(N)ncnc21`, for which the EC50 in the data set on Hepatocyte was found to be 7.5 µM. This compound had an IC50 in data set [2] of over 2 µM.
`NC(=O)c1ncn([C@@H]2O[C@H](COP(=O)(O)O)[C@@H](O)[C@H]2O)c1N`: in data set [1], the IC50 stood at 12 µM. In addition, in data set [3], the ED50 amounted to 250 µM.
On to `Nc1ncnc2c1nc(-c1ccc(P(=O)(O)O)o1)n2CCc1ccccc1`, for which the EC50 in the data set with Hepatocyte is 5 µM; in data set [5], over 200 µM. Besides, the IC50 is 40 µM in data set [2], over 100 µM at Adenosine kinase and 6.7 µM in data set [4]. For the same compound, the F with Rattus norvegicus is under 5%.
In data set [1], `CN(C)CC(C)(C)Cn1c(-c2ccc(P(=O)(O)O)o2)nc2c(N)ncnc21` displayed a half-inhibitory concentration (IC50) of over 10 µM.
Take `Cn1c(P(=O)(O)O)cnc1-c1nc2c(N)ncnc2n1CC(C)(C)C`: the IC50 in data set [1] was over 10 µM.
Same read-out and setting: as for `Nc1ncnc2c1nc(CCCP(=O)(O)O)n2CCc1ccccc1`, the figure is 100 µM.
Consider `CSc1nc(N)c2nc(-c3ccc(P(=O)(O)O)o3)n(CC(C)(C)C)c2n1`, for which the results for the IC50 in data set [1] and in data set [2] were 1.1 µM and 4 µM, respectively. The same compound returned an EC50 with Hepatocyte of 8.5 µM.
In turn, `Nc1ncnc2c1nc(-c1ccc(P(=O)(O)O)s1)n2CCc1ccccc1` had an IC50 in data set [1] of 48 µM.
The same measure, in the same setting: as for `Nc1ncnc2[nH]c(NCCP(=O)(O)O)nc12`, the figure is over 100 µM.
The compound `CSc1nc(N)c2nc(-c3ccc(P(=O)(O)O)o3)n(CC(C)C)c2n1` yielded a concentration for a half-maximal effect (EC50) in the data set with Hepatocyte of over 25 µM. The IC50 in data set [2] is over 20 µM.
`Nc1ncnc2c1nc(S(=O)(=O)CCP(=O)(O)O)n2CCc1ccccc1` showed an IC50 in data set [1] of over 1000 µM.
With `Nc1ncnc2c1nc(CNCP(=O)(O)O)n2CCc1ccccc1`, in data set [1], the IC50 was over 500 µM.
On the same count and under the same terms, as for `Nc1ncnc2c1nc(NCCP(=O)(O)O)n2CCc1ccccc1`, the figure is 100 µM.
The same measure, in the same setting: as for `CC(n1c(-c2ccc(P(=O)(O)O)o2)nc2c(N)ncnc21)C(C)(C)C` (stereo not drawn), the figure is 5 µM; as for `Nc1ncnc2c1nc(COCP(=O)(O)O)n2CCc1ccccc1`, 23 µM; as for `Nc1ncnc2c1nc(NCCP(=O)(O)O)n2Cc1ccc2ccccc2c1`, 35 µM.
The same measure, in the same setting: the figure for `Nc1ncnc2c1nc(NCCCP(=O)(O)O)n2[C@@H]1O[C@H](CO)[C@@H](O)[C@H]1O` is over 100 µM; for `CC(C)(C)Cn1c(-c2coc(P(=O)(O)O)c2)nc2c(N)ncnc21` it is over 10 µM; for `Nc1ncnc2c1nc(NCCP(=O)(O)O)n2Cc1ccccc1` it is 91 µM.
Take `Nc1ncnc2c1nc(NCP(=O)(O)O)n2[C@@H]1O[C@H](CO)[C@@H](O)[C@H]1O`: the IC50 in data set [1] is over 100 µM.
Same read-out and setting: as for `Nc1ncnc2c1nc(-c1ccc(P(=O)(O)O)o1)n2C1CC1`, the figure is 1.5 µM.
Turning to `Nc1ncnc2c1nc(-c1ccc(P3(=O)OCCSSCCO3)o1)n2CCc1ccccc1`, the midpoint of the response with Hepatocyte, the EC50, lay at 250 µM.
On to `Cn1c(-c2nc3c(N)ncnc3n2CC(C)(C)C)ccc1P(=O)(O)O`, for which the IC50 in data set [1] was over 10 µM.
